Results published in PMC12589562, “Structural and functional characterization of TgGSK3, a druggable kinase in Toxoplasma gondii” (Nature Communications, 2025).

Legend:
TgGSK3 = target: T1, TgGSK3 (Toxoplasma gondii, UniProt A0A125YY75); assay: X-ray co-crystal structure ([…] Å and […] Å); microscale thermophoresis; Kinase-Glo inhibition (IC50 […]); format: binding
T1 construct: gene TGGT1_265330; kinase domain, aa 46-385 (orthorhombic crystal) and aa 20/21-385 (monoclinic crystal)

[1] = target: recombinant TgGSK3 (amino acids 21-385), C-terminal 6His (Toxoplasma gondii); assay: crystal structure; monoclinic crystal at 3.0 A of TgGSK3 (aa 20 to 385) with LY2090314; hanging drops in 5% MPD, 9% PEG 6000, 0.1 M Tris pH 7.5; crystals grew after several weeks; four subunits in the asymmetric unit

Compound	Kd (TgGSK3) [nM]	stoichiometry N [1]
O=C1NC(=O)C(c2cnc3ccccn23)=C1c1cn2c3c(cc(F)cc13)CN(C(=O)N1CCCCC1)CC2 [compound 209, LY2090314]	34	–
recombinant TgGSK3 (amino acids 21-385), C-terminal 6His (from UniProt A0A125YY75 21-385) (enzyme)	–	2
